Experiment: Inhibition of 5-lipoxygenase in human whole blood.

| IC50 [µM] | Compound |
| --- | --- |
| 6.3 | CCCCCCCCCCOc1cccc(C(O)c2ncc(C)[nH]2)c1 (stereo not drawn) |
| 7 | Cc1cnc(C(O)c2cccc(OCc3ccc(-c4ccccc4)cc3)c2)[nH]1 (stereo not drawn) |
| 5.1 | OC(c1cccc(OCc2ccc3ccccc3c2)c1)c1nccs1 (stereo not drawn) |

— BindingDB's records for doi:10.1021/jm00111a038 (Ici Pharmaceuticals Group, 1991)
